For test [1], the system named is beagles. In words: Endoscopic scoring of aspirin-induced gastric irritation in beagles (scale 0 to 7), percent protection. The class given is in vivo. Particulars: oral, with 975 mg aspirin (ASA), antacid about 15 mEq where present; endoscopy at two and four hours; versus Control A (ASA alone). The protocol: (§1) The product obtained above was tested as follows: 10 beagles were fasted overnight. At zero time, the stomach of each animal was endoscopically examined to assure a normal mucosa. Encapsulated compositions containing about 15 mEq MgO in the freshly prepared MgO-CD complex and 975 mg aspirin (ASA) were administered orally and flushed with 50 ml water.
At two and four hours after administration of the encapsulated composition, the stomachs of the animals were endoscopically reexamined for gastric irritation. Irritation was measured according to a scale of 0 to 7, wherein zero was the condition of the mucosa for a normal stomach and a value of 7 represents massive hemorrhagic damage.
Three control tests were also conducted. In Control A the animals were administered 975 mg ASA. In Control B the animals were administered 6.27 mg α-CD and 975 aspirin and in Control C the animals were administered 15 mEq MgO and 975 aspirin.
(§2) wherein n is the number of animals, % Protection is the difference in irritation scores (on the scale of 0 to 7) between Control A and the MgO-CD complex divided by the irritation score for Control A multiplied by 100, and pH is the pH of the antrum fluid sample. The complex of the present invention is seen to have provided a substantial increase in percent protection coupled with a marked increase in pH over the controls.

A short description of test [2]: pH of gastric fluid sample obtained from the antrum after dosing. The class given is in vivo, beagles. Particulars: oral, with 975 mg aspirin (ASA), antacid about 15 mEq where present. As to the method: as §1
In addition, a sample of gastric fluid was obtained from the antrum, and its general appearance noted and its pH measured.
as §2

As to `[OH][Al]([OH])[OH]` [Al(OH)₃], the “% Protection” value in test [1] stood at 10.8 ± 4.6%. In test [2], the pH is given as 4.72 ± 0.85.
For `CC(=O)Oc1ccccc1C(=O)O` [Control A, aspirin], in that order: 0% and 3.74 ± 0.44.
`O=C(O)O` [MgCO₃]: the “% Protection” value in test [1] is given as 2.1 ± 6.1%. The compound also returned a pH in test [2] of 3.33 ± 0.81.
On the same counts, the results for CaCO₃ are 3.0 ± 5% and 4.17 ± 0.90.

These data come from patent publication EP0583976A2, “Gastroprotective complexes with cyclodextrin” (Bristol-Myers Squibb Company, priority 1992, dated 1994).
